In test [1] the target is T1, Human KRAS G12D 6His-tagged (Homo sapiens, UniProt P01116, G12D).
T1 construct: purchased PerkinElmer
The experiment in a line: KRAS-G12D/GTP binding assay (HTRF). As for the experimental part:
In this method, the inhibitory effects of the compounds on the binding of KRAS-G12D to GTP were assayed by a homogeneous time-resolved fluorescence (HTRF) technique using a KRAS-G12D/GTP binding assay kit (PerkinElmer).
The experimental procedures were as follows (refer to the kit instructions for detailed test methods): the compounds of the present disclosure were each firstly dissolved in DMSO at a concentration of 20 mM, and then diluted in an equal gradient with a buffer in the kit, so that the final concentrations of the test compounds in the reaction system were in a range of 0.02-5000 nM, and the final concentration of DMSO was 0.5%. 5 μL of each compound was incubated with 5 μL of 1× Human KRAS G12D 6His-tagged (PerkinElmer), 5 μL of 1×6His Eu Cryptate Antibody (PerkinElmer), and 5 μL of 1×GTP Red reagent (PerkinElmer) in a 384-well plate (Greiner) at 25° C. for 1 h. After the incubation was completed, the fluorescence intensity of each well was measured at the excitation wavelength of 337 nm and the emission wavelengths of 620 nm and 665 nm with an EnVision microplate reader (PerkinElmer) in the HTRF mode, and Ratio values were calculated using the formula: Ratio=(665 nm/620 nm)×[…]. The inhibition rates of the compounds at each concentration were calculated by comparing the fluorescence intensity ratio with that of the control group. Then non-linear curve fittings for logarithmic concentration-inhibition rate were performed using the GraphPad Prism 8 analysis software, and the IC50 values of the compounds were obtained (Table 2).
Background: In TR-FRET formats the signal depends on donor and acceptor labels being close together.

The next test addresses T2, KRAS-G12D (Homo sapiens, UniProt P01116, G12D).
T2 construct: endogenous in cells; host or cells: A-427 (ATCC), AGS, AsPc-1, Panc 04.03
The experiment in a line: KRAS-G12D degradation assay (Western Blot), A-427 cells. Type of test: cell-based. Particulars: A427 cells, 24 h, class symbols; for Dmax: A-427. A digest of the protocol:
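Each KRAS G12D mutant line (A-427, AGS, AsPc-1, Panc 04.03) was seeded at 5×10^5 cells/well and treated 24 h at 37 °C with 0.03–3000 nM compound (final DMSO 0.25%). KRAS in lysates was measured by Western blot, normalized to β-actin and compared with controls, giving DC50 and Dmax from curve fits.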
Background: A western blot detects proteins with antibodies after separation by electrophoresis.

For test [2], the system named is KRAS G12D mutant human gastric cancer cell AGS. In words: 3D cell proliferation inhibition assay, AGS. Type of test: cell-based. Particulars: 168 h, 7 days, CTG. In short, it runs like this: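 Cells seeded at 5×10^2 per well in low-adsorption plates with compounds at 10000–0.026 nM final (0.2% DMSO) and grown 7 days at 37 °C, 5% CO2. Viability by CellTiter-Glo luminescence after 60 min at room temperature; inhibition normalized to DMSO and medium-only controls, IC50 from nonlinear log-concentration fit.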

T1 sequence (P01116 1-188 isoform P01116-2 G12D): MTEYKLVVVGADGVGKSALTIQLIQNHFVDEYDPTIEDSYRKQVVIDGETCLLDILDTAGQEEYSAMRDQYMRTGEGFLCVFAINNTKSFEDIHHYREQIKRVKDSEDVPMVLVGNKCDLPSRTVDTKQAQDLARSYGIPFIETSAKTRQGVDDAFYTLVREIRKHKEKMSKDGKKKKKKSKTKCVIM
T2 sequence (P01116 1-188 isoform P01116-2 G12D): as above

Molecule `C#Cc1c(F)ccc2cc(O)cc(-c3ncc4c(N5CC6CCC(C5)N6)nc(OCC5(CN6CC7CCC(C6)N7CC6CCC7(CC6)CCN(C(=O)c6ccc(Cl)c(N8CCC(=O)NC8=O)c6)CC7)CC5)nc4c3F)c12` [Example 58, 1-(5-(9-((3-((1-(((4-(3,8-diazabicyclo[3.2.1]octan-3-yl)-7-(8-ethynyl-7-fluoro-3-hydroxynaphthalen-1-yl)-8-fluoropyrido[4,3-d]pyrimidin-2-yl)oxy)methyl)cyclopropyl)methyl)-3,8-diazabicyclo[3.2.1]octan-8-yl)methyl)-3-azaspiro[5.5]undecane-3-carbonyl)-2-chlorophenyl)dihydropyrimidine-2,4(1H,3H)-dione] registered an IC50 in test [1] (class symbols) of 500 to 1000 nM. At KRAS-G12D, this molecule showed a DC50 of at most 50 nM and a Dmax of 80 to 100%.

For the molecule `C#Cc1c(F)ccc2cc(O)cc(-c3ncc4c(N5CC6CCC(C5)N6)nc(OC[C@@H]5CCCN5CC5CCN(CCC(=O)N[C@H](C(=O)N6C[C@H](O)C[C@H]6C(=O)NCc6ccc(-c7scnc7C)cc6)C(C)(C)C)CC5)nc4c3F)c12` [Example 35, (2S,4R)-1-((S)-2-(3-(4-(((S)-2-(((4-(3,8-diazabicyclo[3.2.1]octan-3-yl)-7-(8-ethynyl-7-fluoro-3-hydroxynaphthalen-1-yl)-8-fluoropyrido[4,3-d]pyrimidin-2-yl)oxy)methyl)pyrrolidin-1-yl)methyl)piperidin-1-yl)propanamido)-3,3-dimethylbutanoyl)-4-hydroxy-N-(4-(4-methylthiazol-5-yl)benzyl)pyrrolidine-2-carboxamide], in test [1] (class symbols), the IC50 is at most 50 nM. At KRAS-G12D, this molecule returned a DC50 of 1000 to 10000 nM and a Dmax below 30%.

In test [1] (numeric values), `C#Cc1c(F)ccc2cc(O)cc(-c3ncc4c(N5CC6CCC(C5)N6)nc(OCC5(CN6CCN(C(=O)c7ccc(Cl)c(N8CCC(=O)NC8=O)c7)CC6)CC5)nc4c3F)c12` [Example 69, 1-(5-(4-((1-(((4-(3,8-diazabicyclo[3.2.1]octan-3-yl)-7-(8-ethynyl-7-fluoro-3-hydroxynaphthalen-1-yl)-8-fluoropyrido[4,3-d]pyrimidin-2-yl)oxy)methyl)cyclopropyl)methyl)piperazine-1-carbonyl)-2-chlorophenyl)dihydropyrimidine-2,4(1H,3H)-dione] came in with an IC50 of 2.4 nM.

`C#Cc1c(F)ccc2cc(O)cc(-c3ncc4c(N5CC6CCC(C5)N6)nc(OC[C@@H]5CCCN5CC5CCC6(CC5)CCN(C(=O)c5ccc(Cl)c(N7CCC(=O)NC7=O)c5)CC6)nc4c3F)c12` [Example 12, 1-(5-(9-(((S)-2-(((4-(3,8-diazabicyclo[3.2.1]octan-3-yl)-7-(8-ethynyl-7-fluoro-3-hydroxynaphthalen-1-yl)-8-fluoropyrido[4,3-d]pyrimidin-2-yl)oxy)methyl)pyrrolidin-1-yl)methyl)-3-azaspiro[5.5]undecane-3-carbonyl)-2-chlorophenyl)dihydropyrimidine-2,4(1H,3H)-dione] gave an IC50 in test [1] (class symbols) of 100 to 500 nM. At KRAS-G12D, this molecule returned a DC50 of 1000 to 10000 nM and a Dmax of 50 to 80%.

`C#Cc1c(F)ccc2cc(O)cc(-c3ncc4c(N5CC6CCC(C5)N6)nc(OC[C@@H]5CCCN5CCCC5CCN(C(=O)c6ccc(Cl)c(N7CCC(=O)NC7=O)c6)CC5)nc4c3F)c12` [Example 9, 1-(5-(4-(3-((S)-2-(((4-(3,8-diazabicyclo[3.2.1]octan-3-yl)-7-(8-ethynyl-7-fluoro-3-hydroxynaphthalen-1-yl)-8-fluoropyrido[4,3-d]pyrimidin-2-yl)oxy)methyl)pyrrolidin-1-yl)propyl)piperidine-1-carbonyl)-2-chlorophenyl)dihydropyrimidine-2,4(1H,3H)-dione] yielded an IC50 in test [1] (class symbols) of 50 to 100 nM. On KRAS-G12D, this molecule returned a DC50 of 1000 to 10000 nM and a Dmax of 30 to 50%.

As for `C#Cc1c(F)ccc2cc(O)cc(-c3ncc4c(N5CC6CCC(C5)N6)nc(OCC5(CN6CCC7(CC6)CCN(C(=O)c6ccc(Cl)c(N8CCC(=O)NC8=O)c6)CC7)CC5)nc4c3F)c12` [Example 85, 1-(5-(9-((1-(((4-(3,8-diazabicyclo[3.2.1]octan-3-yl)-7-(8-ethynyl-7-fluoro-3-hydroxynaphthalen-1-yl)-8-fluoropyrido[4,3-d]pyrimidin-2-yl)oxy)methyl)cyclopropyl)methyl)-3,9-diazaspiro[5.5]undecane-3-carbonyl)-2-chlorophenyl)dihydropyrimidine-2,4(1H,3H)-dione], the IC50 in test [1] (numeric values) is 1.34 nM; in test [2] (numeric values), 50.2 nM.

Take `CCc1cccc2cc(O)cc(-c3ncc4c(N5CC6CCC(C5)N6)nc(OC[C@@H]5CCCN5CCC5CCN(CCC(=O)N[C@H](C(=O)N6C[C@H](O)C[C@H]6C(=O)NCc6ccc(-c7scnc7C)cc6)C(C)(C)C)CC5)nc4c3F)c12` [Example 34, (2S,4R)-1-((S)-2-(3-(4-(2-((S)-2-(((4-(3,8-diazabicyclo[3.2.1]octan-3-yl)-7-(8-ethyl-3-hydroxynaphthalen-1-yl)-8-fluoropyrido[4,3-d]pyrimidin-2-yl)oxy)methyl)pyrrolidin-1-yl)ethyl)piperidin-1-yl)propanamido)-3,3-dimethylbutanoyl)-4-hydroxy-N-(4-(4-methylthiazol-5-yl)benzyl)pyrrolidine-2-carboxamide]: the IC50 in test [1] (class symbols) lay in the range of 100 to 500 nM. Besides, on KRAS-G12D, the DC50 was in the range of 1000 to 10000 nM and the Dmax was below 30%.

The molecule `CCc1cccc2cc(O)cc(-c3ncc4c(N5CC6CCC(C5)N6)nc(OC[C@@H]5CCCN5CCCC5CCN(C(=O)c6ccc(Cl)c(N7CCC(=O)NC7=O)c6)CC5)nc4c3F)c12` [Example 1, 1-(5-(4-(3-((S)-2-(((4-(3,8-diazabicyclo[3.2.1]octan-3-yl)-7-(8-ethyl-3-hydroxynaphthalen-1-yl)-8-fluoropyrido[4,3-d]pyrimidin-2-yl)oxy)methyl)pyrrolidin-1-yl)propyl)piperidine-1-carbonyl)-2-chlorophenyl)dihydropyrimidine-2,4(1H,3H)-dione] gave an IC50 in test [1] (class symbols) of 100 to 500 nM. Also, at KRAS-G12D, the DC50 lay within 1000 to 10000 nM and the Dmax was in the range of 30 to 50%.

With `C#Cc1c(F)ccc2cc(O)cc(-c3ncc4c(N5CC6CCC(C5)N6)nc(OCC5(CN6CCC(CCN7CCN(C(=O)c8ccc(Cl)c(N9CCC(=O)NC9=O)c8)CC7)CC6)CC5)nc4c3F)c12` [Example 28, 1-(5-(4-(2-(1-((1-(((4-(3,8-diazabicyclo[3.2.1]octan-3-yl)-7-(8-ethynyl-7-fluoro-3-hydroxynaphthalen-1-yl)-8-fluoropyrido[4,3-d]pyrimidin-2-yl)oxy)methyl)cyclopropyl)methyl)piperidin-4-yl)ethyl)piperazine-1-carbonyl)-2-chlorophenyl)dihydropyrimidine-2,4(1H,3H)-dione], in test [1] (class symbols), the IC50 was at most 50 nM. Besides, on KRAS-G12D, the DC50 was 1000 to 10000 nM and the Dmax is below 30%.

`C#Cc1c(F)ccc2cc(O)cc(-c3ncc4c(N5CC6CCC(C5)N6)nc(OCC5(CN6CCN(CC7CCN(C(=O)c8ccc(Cl)c(N9CCC(=O)NC9=O)c8)CC7)CC6)CC5)nc4c3F)c12` [Example 27, 1-(5-(4-((4-((1-(((4-(3,8-diazabicyclo[3.2.1]octan-3-yl)-7-(8-ethynyl-7-fluoro-3-hydroxynaphthalen-1-yl)-8-fluoropyrido[4,3-d]pyrimidin-2-yl)oxy)methyl)cyclopropyl)methyl)piperazin-1-yl)methyl)piperidine-1-carbonyl)-2-chlorophenyl)dihydropyrimidine-2,4(1H,3H)-dione] showed a concentration for half-maximal inhibition (IC50) in test [1] (class symbols) of at most 50 nM. On KRAS-G12D, this molecule gave a DC50 of 1000 to 10000 nM and a Dmax of 30 to 50%. The IC50 in test [2] (class symbols) is at most 50 nM.

`C#Cc1c(F)ccc2cc(O)cc(-c3ncc4c(N5CC6CCC(C5)N6)nc(OCC5(CN6CCC(O)(COCCC7CCN(C(=O)c8ccc(Cl)c(N9CCC(=O)NC9=O)c8)CC7)CC6)CC5)nc4c3F)c12` [Example 63] displayed an IC50 in test [1] (numeric values) of 1.15 nM.

Consider `C#Cc1c(F)ccc2cc(O)cc(-c3ncc4c(N5CC6CCC(C5)N6)nc(OCC5CCN(CCCCC6CCC7(CC6)CCN(C(=O)c6ccc(Cl)c(N8CCC(=O)NC8=O)c6)CC7)CC5)nc4c3F)c12` [Example 52, 1-(5-(9-(4-(4-(((4-(3,8-diazabicyclo[3.2.1]octan-3-yl)-7-(8-ethynyl-7-fluoro-3-hydroxynaphthalen-1-yl)-8-fluoropyrido[4,3-d]pyrimidin-2-yl)oxy)methyl)piperidin-1-yl)butyl)-3-azaspiro[5.5]undecane-3-carbonyl)-2-chlorophenyl)dihydropyrimidine-2,4(1H,3H)-dione], for which, in test [1] (class symbols), the IC50 is 100 to 500 nM. For the same molecule, at KRAS-G12D, the DC50 was in the range of 100 to 500 nM and the Dmax was 50 to 80%.

Broadly, the IC50 is the concentration that gives 50% inhibition. The low end stands for inhibition by little substance, the high end for a need for much substance. For orientation: DC50 means the midpoint of the concentration-degradation curve. The low end stands for a more potent degrader, the high end for a less potent degrader. One may read the Dmax as the largest share of the target that was removed. A high value points to deep degradation.

For the origin of these results see patent US20260166159A1, “KRAS G12D DEGRADATION AGENT, AND PREPARATION METHOD AND USE THEREFOR” (LEADINGTAC PHARMACEUTICAL (SHAOXING) CO., LTD., priority 2022, published 2026).
